The record followed here is publication PMC6155388, “Chemical Constituents of Smilax china L. Stems and Their Inhibitory Activities against Glycation, Aldose Reductase, α-Glucosidase, and Lipase” (Molecules : A Journal of Synthetic Chemistry and Natural …, 2017).

Structures are written as SMILES. Where only a bound is given, the exact number is not on record here.

The test system of one assay is AGEs formation. The assay is described as follows: AGEs formation inhibition assay (BSA with fructose and glucose, fluorescence). It counts as biochemical. As to conditions: mean ± SD (n = 3); for IC50: isolated compounds, tested 10–500 µM. The procedure:
In accordance with a reported protocol with slight modifications, a reaction mixture of bovine serum albumin (10 mg/mL, Sigma Aldrich) in 50 mM phosphate buffer (pH 7.4) with 0.02% sodium azide was added to 0.4M fructose and glucose. The reaction mixture (270 μL) was added to 30 μL of sequentially diluted compounds or the positive control, AMG. Each sample of extract, hexane, water fractions, EAF, NBF, and compounds 1–10 were dissolved in DMSO for the AGEs assay at five different final concentrations (10–500 µg/mL for extracts and fractions or 10–500 µM for isolated constituents). After 48 h of incubation at 60 °C, 200 μL of the reaction products was taken to 96-well plates and its fluorescence was measured using a spectrofluorometric detector (FlexStation 3, HTRF® Chemistry) at an excitation wavelength of 350 nm and an emission wavelength of 450 nm. DMSO was used as negative control instead of the sample. The IC50 values and 95% confidence intervals were obtained via regression analysis. The percentage of inhibition (%) was calculated by the following equation, where Ac stands for the fluorescence of the control and As stands for the fluorescence of the sample: (1) Inhibition(%)=Ac−As/Ac×100

The target of assay [1] is T1, rat lens aldose reductase (Rattus norvegicus, UniProt P07943).
T1 construct: The rat lenses were homogenized and centrifuged at 10,000 rpm (4 °C, 20 min) and the supernatant was used as an enzyme source; from tissue; host or cells: rat lens (Sprague-Dawley)
Kind of assay: AR assay (rat lens homogenate, decrease in β-NADPH absorption). It counts as biochemical, Sprague-Dawley rats. As to conditions: mean ± SD (n = 3); for IC50: isolated compounds, tested 0.1–100 µM.
Procedure: Lenses (one lens per 0.5 mL sodium buffer) were removed from Sprague-Dawley rats (weight 250–280 g) and stored in a deep freezer at −80 °C until use. The rat lenses were homogenized and centrifuged at 10,000 rpm (4 °C, 20 min) and the supernatant was used as an enzyme source [65]. AR activity was spectrophotometrically calculated by measuring the decrease in β-NADPH absorption rate at 340 nm for a 4 min period at 25 °C in a 96-well plate using the same detector device used in the AGEs assay. The assay mixture (300 µL) contained 0.1 M potassium phosphate buffer (pH 7.0), 0.1 M sodium phosphate buffer (pH 6.2), 1.6 mM β-NADPH, and test samples with 0.025 M of DL-glyceraldehyde as substrate. […] IC50 values were determined using the least-squares regression line of log concentration plotted against residual activity. TMG, a typical AR inhibitor, was used as the positive control. A negative control was fulfilled by using DMSO instead of the sample.

In assay [2] the target is T2, porcine pancreatic lipase (Sus scrofa, UniProt P00591).
T2 construct: purchased Sigma-Aldrich Co. Type II
T2 sequence (P00591 1-450): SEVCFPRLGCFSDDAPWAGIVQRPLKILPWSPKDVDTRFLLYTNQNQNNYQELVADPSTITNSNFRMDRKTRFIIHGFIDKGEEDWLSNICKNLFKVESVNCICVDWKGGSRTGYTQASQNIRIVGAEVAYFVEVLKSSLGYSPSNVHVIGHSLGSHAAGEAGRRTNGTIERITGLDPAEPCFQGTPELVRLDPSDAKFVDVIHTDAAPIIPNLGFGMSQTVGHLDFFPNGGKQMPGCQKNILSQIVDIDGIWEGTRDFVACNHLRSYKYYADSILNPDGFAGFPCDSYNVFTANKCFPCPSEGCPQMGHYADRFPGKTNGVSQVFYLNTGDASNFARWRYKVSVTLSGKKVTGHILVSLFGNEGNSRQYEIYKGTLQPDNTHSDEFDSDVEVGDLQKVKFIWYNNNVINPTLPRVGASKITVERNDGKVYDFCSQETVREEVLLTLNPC
Kind of assay: Lipase inhibition assay (p-NPB). Type of assay: biochemical. As to conditions: isolated compounds; tested 10–2000 µM; mean ± SD (n = 3).
Procedure: Lipase inhibition activity was evaluated according to a slightly modified method of de Camargo et al. [66]. The substrate used was p-nitrophenyl butyrate (p-NPB), which is converted to p-nitro-phenol in the presence of lipase, giving a yellow color that can be used to quantify the extent of the reaction. Type II porcine pancreatic lipase was used at a concentration of 5 mg/mL. The substrate (p-NPB) was prepared in DMSO to achieve a concentration of 5 mM. Tested samples, dissolved in 10% DMSO at five different final concentrations (0.05–5.0 mg/mL for extracts and fractions or 10–2000 µM for isolated constituents), were mixed with Tris–HCl buffer (pH 7.4), and enzyme solution, with a total reaction mixture volume of 840 μL. After incubation at 37 °C for 15 min, p-NPB was added, and the solution was further incubated at 37 °C for 25 min. Then, the mixture was cooled for 2 min, and 200 μL was transferred to a 96-well plate. Absorbance was measured using the SUNRISE microplate reader. Blanks, in which enzymes were replaced with Tris–HCl buffer, were prepared for background corrections. […] The inhibition rate of lipase activity was also calculated using Equation (1).

The target of assay [3] is α-glucosidase from Saccharomyces cerevisiae. The assay is described as follows: α-Glucosidase inhibition assay (p-NPG). As to conditions: isolated compounds; tested 1–1000 µM; mean ± SD (n = 3). Type of assay: biochemical.
Procedure: This enzyme inhibition assay was carried out by using a 96-well microplate reader and a spectrophotometer. The reaction volume (60 μL) contained 100 mM phosphate buffer (pH 6.8), 2.5 mM p-nitrophenyl α-D-glucopyranoside (p-NPG), and sample dissolved in 10% DMSO at five different final concentrations (5–100 µg/mL for extracts and fractions or 1–1000 µM for isolated constituents). A chromogenic substance was used for quantification purposes. The mixture solution was added to each well, then, 20 μL of 10 mM phosphate buffer (pH 6.8) containing 0.2 U/mL α-glucosidase was added. The plate was incubated at 37 °C for 15 min, then, 80 μL of 0.2 mol/L sodium carbonate solution was added to stop the reaction. Absorbance was measured at 405 nm immediately after reaction cessation by using a SUNRISE microplate reader (Tecan Austria GmbH, Grodig, Austria). The negative control contained the same reaction mixture with phosphate buffer substituted for the sample solution. […] The inhibition rate of α-glucosidase activity was calculated using the same equation (1) used for inhibition of AGEs formation, but absorbance was measured instead of fluorescence.
Where [4] appears, read: ND: no detection within test concentration.
[5] abbreviates: 70% MeOH stem extracts of Smilacaceae plants.

Consider `O=C(/C=C/c1ccc(O)c(O)c1)OC1CC(O)(C(=O)O)CC(O)C1O` (stereo not drawn) [3-O-Caffeoylquinic acid (3), 3-O-Caffeoylquinic acid], for which the IC50 is 80.5 ± 5.5 µM in the assay on AGEs formation, 0.6 ± 0.03 µM in assay [1] (setting [4]) and above 1000 µM in assay [2].
Turning to `CC1OC(Oc2cc(O)c3c(=O)c(OC4OC(CO)C(O)C(O)C4O)c(-c4ccc(O)cc4)oc3c2)C(O)C(O)C1O` [Kaempferol 3-O-β-D-glucopyranosyl-7-O-α-L-rhamnopyranoside], the IC50 in the assay with AGEs formation is 193 ± 9 µM; in assay [1] (setting [4]) it was 9.38 ± 1.46 µM; in assay [3] it was 609 ± 32 µM; in assay [2] it was above 1000 µM.
Turning to `COc1cc(/C=C/C(=O)OC[C@H]2O[C@@](CO)(O[C@H]3O[C@H](CO)[C@@H](O)[C@H](O)[C@H]3O)[C@@H](OC(=O)/C=C/c3ccc(O)c(OC)c3)[C@@H]2O)ccc1O` [Helonioside A (9)], the IC50 was 227 ± 16 µM in the assay with AGEs formation, 34.5 ± 0.1 µM in assay [1] (setting [4]), 154 ± 4 µM in assay [3] and above 1000 µM in assay [2].
On to `O=C(O)c1ccc(O)c(O)c1` [Protocatechuic acid (1), Protocatechuic acid], for which the IC50 with AGEs formation stood at 418 ± 10 µM; in assay [3], 176 ± 7 µM; in assay [2], 22.9 ± 0.8 µM.
For `O=C(/C=C/c1ccc(O)c(O)c1)OC1C(O)CC(O)(C(=O)O)CC1O` (stereo not drawn) [4-O-Caffeoylquinic acid (4), 4-O-Caffeoylquinic acid], the values for the IC50 (in the assay on AGEs formation; in assay [3]; in assay [2]) were 74.1 ± 3.1 µM, 736 ± 15 µM and above 1000 µM, respectively.
As for `Oc1ccc(/C=C/c2cc(O)cc(O)c2)cc1` [trans-Resveratrol (8), 3,5,4′-Trihydroxy-trans-stilbene], the IC50 with AGEs formation was 148 ± 14 µM; in assay [1] (setting [4]), 60.5 ± 16.8 µM; in assay [3] it was 5.97 ± 0.2 µM; in assay [2] it was 61.2 ± 11.7 µM.
Turning to `CC1OC(Oc2c(O)cc(O)c3c(=O)cc(-c4ccc(O)cc4)oc23)C(O)C(O)C1O` (stereo not drawn) [Isoscutellarein-8-O-rhamnoside (10), Isoscutellarein 8-O-rhamnoside], the IC50 was determined as 440 ± 17 µM with AGEs formation, 17 ± 3.6 µM in assay [1] (setting [4]), 45.1 ± 2.6 µM in assay [3] and 101 ± 18 µM in assay [2].
In the case of `O=C(/C=C/c1ccc(O)c(O)c1)OC1CC(O)(C(=O)O)CC(O)C1O` (stereo not drawn) [5-O-Caffeoylquinic acid (2), 5-O-Caffeoylquinic acid], the IC50 in the assay on AGEs formation was found to be 215 ± 18 µM; in assay [1] (setting [4]), 87.5 ± 1.6 µM; in assay [2], 474 ± 35 µM.
For the compound `O=C(O)CC1(CC(=O)O)CCCC1` [TMG, 3,3′-tetramethyleneglutaric acid, reference compound], the “Aldose Reductase IC50” value was 1.30 ± 0.10 µg/mL in assay [1] (setting [5]); 1.30 ± 0.10 µg/mL in assay [1] (SCS extract and solvent fractions, tested 10–100 µg/mL, ND: no detection within test concentration). Moreover, in assay [1] (setting [4]), it took 6.97 ± 0.56 µM to reach half-maximal inhibition (IC50).
In the case of `C[C@@H]1O[C@@H](Oc2c(-c3ccc(O)c(O)c3)oc3cc(O)cc(O)c3c2=O)[C@H](O)[C@H](O)[C@H]1O` [Quercitrin (6), Quercetin 3-O-α-L-rhamnoside], the IC50 in the assay with AGEs formation is 58 ± 2.5 µM; in assay [1] (setting [4]), 0.56 ± 0.14 µM; in assay [3], 135 ± 13 µM; in assay [2] it was 96.7 ± 7 µM.
On to `C[C@@H]1O[C@@H](Oc2c(-c3ccc(O)cc3)oc3cc(O)cc(O)c3c2=O)[C@H](O)[C@H](O)[C@H]1O` [Afzelin (7), Kaempferol 3-O-α-L-rhamnoside], for which it took 75.4 ± 3.8 µM to reach half-maximal inhibition in the assay with AGEs formation (IC50).
Regarding `N=C(N)NN` [AMG, aminoguanidine, reference compound], the “AGEs IC50” value with AGEs formation (setting [5]) turned out to be 54.8 ± 2.1 µg/mL; in the assay with AGEs formation (SCS extract and solvent fractions, tested 10–500 µg/mL, ND: no detection within test concentration), 54.8 ± 2.1 µg/mL. This compound showed an IC50 with AGEs formation of 515 ± 33 µM.
